According to PubChem BioAssay AID488931 (Broad Institute, 2010):
The source made the active and inactive calls.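 The calls were made as follows: active = rising protection curve whose AC50 sits at or below ten times the top dose tested for that sample; inconclusive = flat response between 30 and 70 percent, or poor fit; inactive = the rest.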

Columns and labels:
[1] = protection from cytokine-induced mitochondrial depolarization, dose response, cell-based, INS-1E, JC-1 fluorescence ratio, dry powder (AID 488931); details: INS-1E cytokine-induced mitochondrial depolarization, JC-1 ratio, 48 h; at 19.5 µM (top of the series)
[2] = system: INS-1E cytokine-induced mitochondrial depolarization, JC-1 ratio, 48 h; assay: as above

Row | Structure (SMILES) | protection from depolarization [1] | AC50 [2]
1 | COc1ccc(S(=O)(=O)N(C)C[C@@H]2Oc3c(NC(=O)NC4CCCCC4)cccc3C(=O)N([C@@H](C)CO)C[C@H]2C)cc1 | 16.4% (inactive) | –
2 | CNC[C@@H]1Oc2c(NC(=O)Nc3cccc4ccccc34)cccc2C(=O)N([C@@H](C)CO)C[C@H]1C | 4.81% (inactive) | –
3 | C[C@@H]1CN([C@@H](C)CO)C(=O)c2cccc(NC(=O)Nc3cccc4ccccc34)c2O[C@H]1CN(C)S(=O)(=O)c1ccc2c(c1)OCCO2 | 19.2% (inactive) | –
4 | Cc1ccc(S(=O)(=O)N(C)C[C@H]2Oc3c(NC(=O)Nc4cccc5ccccc45)cccc3C(=O)N([C@@H](C)CO)C[C@@H]2C)cc1 | -8.26% (inactive) | –
5 | COc1ccc(S(=O)(=O)N(C)C[C@@H]2Oc3c(NC(=O)Nc4ccccc4)cccc3C(=O)N([C@H](C)CO)C[C@H]2C)cc1 | – | > 19.5 µM (inactive)
6 | C[C@H]1CN([C@@H](C)CO)C(=O)c2cccc(NC(=O)NC3CCCCC3)c2O[C@@H]1CN(C)S(C)(=O)=O | 4.62% (inactive) | –
7 | C[C@@H]1CN([C@@H](C)CO)C(=O)c2cccc(NC(=O)Nc3cccc4ccccc34)c2O[C@H]1CN(C)S(=O)(=O)c1ccccc1 | 12.8% (inactive) | –
8 | COc1ccc(S(=O)(=O)N(C)C[C@@H]2Oc3c(NC(=O)C4CCOCC4)cccc3C(=O)N([C@@H](C)CO)C[C@H]2C)cc1 | 0.344% (inactive) | –
9 | COc1ccc(S(=O)(=O)N(C)C[C@@H]2Oc3ccc(NC(=O)Nc4cccc5ccccc45)cc3C(=O)N([C@@H](C)CO)C[C@H]2C)cc1 | -7.17% (inactive) | –
10 | COc1ccc(S(=O)(=O)N(C)C[C@@H]2Oc3c(NC(=O)c4cnccn4)cccc3C(=O)N([C@@H](C)CO)C[C@H]2C)cc1 | -0.183% (inactive) | –
11 | C[C@@H]1CN([C@@H](C)CO)C(=O)c2cccc(NC(=O)Nc3cccc4ccccc34)c2O[C@H]1CN(C)S(=O)(=O)c1cn(C)cn1 | -9.26% (inactive) | –
12 | C[C@@H]1CN([C@@H](C)CO)C(=O)c2cccc(NC(=O)Nc3cccc4ccccc34)c2O[C@H]1CN(C)CC1CC1 | 9.67% (inactive) | –
13 | C[C@@H]1CN([C@@H](C)CO)C(=O)c2cccc(NC(=O)Nc3cccc4ccccc34)c2O[C@H]1CN(C)S(=O)(=O)c1cccc(F)c1 | -3.75% (inactive) | –
14 | C[C@@H]1CN([C@H](C)CO)C(=O)c2cccc(NC(=O)Nc3ccccc3)c2O[C@H]1CN(C)S(=O)(=O)c1ccc(Cl)cc1 | 27.7% (inactive) | –
15 | COc1ccc(NC(=O)Nc2cccc3c2O[C@@H](CN(C)S(=O)(=O)c2ccc(OC)cc2)[C@H](C)CN([C@@H](C)CO)C3=O)cc1 | -0.254% (inactive) | –
16 | COc1ccc(S(=O)(=O)N(C)C[C@@H]2Oc3c(NC(=O)Nc4cccc5ccccc45)cccc3C(=O)N([C@@H](C)CO)C[C@H]2C)cc1 | 10.7% (inactive) | –
17 | COc1ccccc1S(=O)(=O)N(C)C[C@@H]1Oc2c(NC(=O)Nc3cccc4ccccc34)cccc2C(=O)N([C@@H](C)CO)C[C@H]1C | 4.59% (inactive) | –
18 | COc1ccc(S(=O)(=O)N(C)C[C@@H]2Oc3c(NC(=O)c4ccc(-c5nccs5)cc4)cccc3C(=O)N([C@@H](C)CO)C[C@H]2C)cc1 | 3.72% (inactive) | –
19 | Cc1ccc(S(=O)(=O)N(C)C[C@@H]2Oc3c(NC(=O)Nc4cccc5ccccc45)cccc3C(=O)N([C@@H](C)CO)C[C@H]2C)cc1 | 13.7% (inactive) | –

Row | Structure (SMILES) | protection from depolarization [1] | AC50 [2]
20 | COc1ccc(S(=O)(=O)N(C)C[C@@H]2Oc3c(NC(=O)Nc4ccc(F)cc4)cccc3C(=O)N([C@H](C)CO)C[C@H]2C)cc1 | 10.6% (inactive) | –
21 | COc1ccc(S(=O)(=O)N(C)C[C@@H]2Oc3c(NS(=O)(=O)c4ccccc4)cccc3C(=O)N([C@@H](C)CO)C[C@H]2C)cc1 | 7.15% (inactive) | –
22 | C[C@@H]1CN([C@@H](C)CO)C(=O)c2cccc(NC(=O)Nc3cccc4ccccc34)c2O[C@H]1CN(C)S(=O)(=O)c1ccccc1F | -1.29% (inactive) | –
23 | COc1ccc(S(=O)(=O)N(C)C[C@@H]2Oc3c(NC(=O)Nc4ccc(C(F)(F)F)cc4)cccc3C(=O)N([C@@H](C)CO)C[C@H]2C)cc1 | 12.6% (inactive) | –
24 | C[C@@H]1CN([C@@H](C)CO)C(=O)c2cccc(NC(=O)Nc3cccc4ccccc34)c2O[C@H]1CN(C)C(=O)Nc1ccc2c(c1)OCO2 | 0.627% (inactive) | –
25 | C[C@@H]1CN([C@H](C)CO)C(=O)c2cccc(NC(=O)Nc3ccccc3)c2O[C@H]1CN(C)S(=O)(=O)c1ccc(F)cc1 | 3.73% (inactive) | –
26 | C[C@@H]1CN([C@@H](C)CO)C(=O)c2cccc(NC(=O)Nc3cccc4ccccc34)c2O[C@H]1CN(C)C(=O)Nc1ccc(C(F)(F)F)cc1 | -10.5% (inactive) | –
27 | C[C@@H]1CN([C@@H](C)CO)C(=O)c2cccc(NC(=O)Nc3cccc4ccccc34)c2O[C@H]1CN(C)S(=O)(=O)c1ccc(F)cc1 | 6.22% (inactive) | –
28 | COc1ccc(S(=O)(=O)N(C)C[C@@H]2Oc3c(NC(=O)Nc4cccc5ccccc45)cccc3C(=O)N([C@H](C)CO)C[C@@H]2C)cc1 | 2.53% (inactive) | –
29 | C[C@@H]1CN([C@@H](C)CO)C(=O)c2cccc(NC(=O)Nc3cccc4ccccc34)c2O[C@H]1CN(C)C(=O)Nc1ccccc1 | -8.43% (inactive) | –
30 | COc1ccc(S(=O)(=O)N(C)C[C@@H]2Oc3c(NS(=O)(=O)c4ccc(C)cc4)cccc3C(=O)N([C@@H](C)CO)C[C@H]2C)cc1 | 2.95% (inactive) | –
31 | COc1ccc(S(=O)(=O)N(C)C[C@@H]2Oc3c(NS(=O)(=O)c4ccc(Cl)cc4)cccc3C(=O)N([C@@H](C)CO)C[C@H]2C)cc1 | 3.44% (inactive) | –
32 | C[C@@H]1CN([C@@H](C)CO)C(=O)c2cccc(NC(=O)Nc3cccc4ccccc34)c2O[C@H]1CN(C)C(=O)Nc1ccc(F)cc1 | -0.192% (inactive) | –
33 | COc1ccc(S(=O)(=O)N(C)C[C@@H]2Oc3c(NS(C)(=O)=O)cccc3C(=O)N([C@@H](C)CO)C[C@H]2C)cc1 | -3.87% (inactive) | –
34 | C[C@@H]1CN([C@@H](C)CO)C(=O)c2cccc(NC(=O)Nc3cccc4ccccc34)c2O[C@H]1CN(C)S(=O)(=O)c1ccc2c(c1)OCO2 | 14.5% (inactive) | –
35 | C[C@@H]1CN([C@@H](C)CO)C(=O)c2cccc(NC(=O)Nc3cccc4ccccc34)c2O[C@H]1CN(C)S(=O)(=O)c1ccc(OC(F)(F)F)cc1 | -17.1% (inactive) | –
36 | COc1ccc(S(=O)(=O)N(C)C[C@@H]2Oc3c(NC(=O)c4cc(C)nn4C)cccc3C(=O)N([C@@H](C)CO)C[C@H]2C)cc1 | -6.67% (inactive) | –
37 | C[C@@H]1CN([C@H](C)CO)C(=O)c2cccc(NC(=O)Nc3cccc4ccccc34)c2O[C@H]1CN(C)S(=O)(=O)c1ccc(Cl)cc1 | 20.7% (inactive) | –
38 | C[C@@H]1CN([C@@H](C)CO)C(=O)c2cccc(NC(=O)Nc3cccc4ccccc34)c2O[C@H]1CN(C)S(=O)(=O)c1ccc2c(c1)OCCCO2 | 5.1% (inactive) | –

Row | Structure (SMILES) | protection from depolarization [1] | AC50 [2]
39 | COc1ccc(NC(=O)N(C)C[C@@H]2Oc3c(NC(=O)Nc4cccc5ccccc45)cccc3C(=O)N([C@@H](C)CO)C[C@H]2C)cc1 | -6.82% (inactive) | –
40 | C[C@@H]1CN([C@@H](C)CO)C(=O)c2cccc(NC(=O)Nc3cccc4ccccc34)c2O[C@H]1CN(C)S(=O)(=O)c1ccc2c(c1)oc(=O)n2C | 23.7% (inactive) | –
41 | COc1ccc(S(=O)(=O)N(C)C[C@H]2Oc3c(NC(=O)Nc4cccc5ccccc45)cccc3C(=O)N([C@H](C)CO)C[C@H]2C)cc1 | 7.31% (inactive) | –
42 | C[C@@H]1CN([C@@H](C)CO)C(=O)c2cccc(NS(=O)(=O)c3ccccc3)c2O[C@H]1CN(C)Cc1ccc(C(F)(F)F)cc1 | -0.0726% (inactive) | –
43 | Cc1ccc(S(=O)(=O)N(C)C[C@@H]2Oc3c(NC(=O)Nc4ccc(F)cc4)cccc3C(=O)N([C@H](C)CO)C[C@H]2C)cc1 | 15.8% (inactive) | –
44 | COc1ccc(S(=O)(=O)N(C)C[C@@H]2Oc3c(NC(=O)Nc4ccc(F)cc4)cccc3C(=O)N([C@@H](C)CO)C[C@H]2C)cc1 | 23.9% (inactive) | –
45 | Cc1noc(C)c1NC(=O)N(C)C[C@@H]1Oc2c(NC(=O)Nc3cccc4ccccc34)cccc2C(=O)N([C@@H](C)CO)C[C@H]1C | 10.5% (inactive) | –
46 | C[C@@H]1CN([C@@H](C)CO)C(=O)c2cccc(NC(=O)Nc3cccc4ccccc34)c2O[C@H]1CN(C)C(=O)NC1CCCCC1 | -5.64% (inactive) | –
47 | COc1ccc(S(=O)(=O)N(C)C[C@@H]2Oc3c(cccc3N(C)C)C(=O)N([C@@H](C)CO)C[C@H]2C)cc1 | -3.81% (inactive) | –
48 | COc1ccc(S(=O)(=O)N(C)C[C@@H]2Oc3c(NS(=O)(=O)c4ccc(F)cc4)cccc3C(=O)N([C@@H](C)CO)C[C@H]2C)cc1 | 2.07% (inactive) | –
49 | COc1ccc(S(=O)(=O)N(C)C[C@@H]2Oc3c(NC(=O)Nc4cccc5ccccc45)cccc3C(=O)N([C@@H](C)CO)C[C@H]2C)c(OC)c1 | 9.11% (inactive) | –
50 | COc1ccc(S(=O)(=O)N(C)C[C@@H]2Oc3c(NS(=O)(=O)c4cn(C)cn4)cccc3C(=O)N([C@@H](C)CO)C[C@H]2C)cc1 | 1.64% (inactive) | –
51 | COc1ccc(S(=O)(=O)N(C)C[C@@H]2Oc3c(NC(=O)c4cccc5ccccc45)cccc3C(=O)N([C@@H](C)CO)C[C@H]2C)cc1 | 5.96% (inactive) | –
52 | C[C@@H]1CN([C@@H](C)CO)C(=O)c2cccc(NC(=O)Nc3ccccc3)c2O[C@H]1CN(C)S(=O)(=O)c1ccc(Cl)cc1 | 18.7% (inactive) | –
53 | COc1ccc(S(=O)(=O)N(C)C[C@@H]2Oc3c(NC(=O)c4nc5ccccc5s4)cccc3C(=O)N([C@@H](C)CO)C[C@H]2C)cc1 | -8.98% (inactive) | –
54 | C[C@@H]1CN([C@@H](C)CO)C(=O)c2cccc(NC(=O)Nc3cccc4ccccc34)c2O[C@H]1CN(C)S(=O)(=O)c1cccs1 | -8.53% (inactive) | –
55 | COc1ccc(S(=O)(=O)N(C)C[C@@H]2Oc3c(NC(=O)C4CC4)cccc3C(=O)N([C@@H](C)CO)C[C@H]2C)cc1 | 0.699% (inactive) | –
56 | C[C@@H]1CN([C@@H](C)CO)C(=O)c2cccc(NC(=O)Nc3ccccc3)c2O[C@H]1CN(C)S(=O)(=O)c1ccc(F)cc1 | 11.5% (inactive) | –
